Source: PubChem BioAssay AID330 (DTP/NCI, 2004)
Several values for one entry are separate records, joined by “and”; a condition that tells them apart may be missing. Identical values can stand only once. Toxic doses and inconclusive results are not listed. How the source made its calls: active means survival T/C of 150% or more; inactive means T/C below 125% in these data.

System: P388 leukemia ip, CD2F1 mice, survival T/C
Test: NCI In Vivo Anticancer Drug Screen. Data for tumor model P388 Leukemia (intraperitoneal) in CD2F1 (CDF1) mice
Conditions: endpoint: median survival time, higher = longer survival
How it was run: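 Mice carrying the transplanted tumor received test compound or vehicle. Survival was recorded in each group, and the value is the treated-group measurement divided by that of the vehicle-treated control group.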

[1] = dose: 50.0 mg/kg/injection, schedule: Q01DX005 (ip), vehicle: saline with Tween-80
[2] = dose: 100.0 mg/kg/injection, schedule: Q01DX005 (ip), vehicle: saline with Tween-80
[3] = dose: 200.0 mg/kg/injection, schedule: Q01DX005 (ip), vehicle: saline with Tween-80
[4] = dose: 60.0 mg/kg/injection, schedule: Q01DX005 (ip), vehicle: saline with Tween-80
[5] = dose: 120.0 mg/kg/injection, schedule: Q01DX005 (ip), vehicle: saline with Tween-80
[6] = dose: 50.0 mg/kg/injection, schedule: Q01DX009 (ip), vehicle: saline with Tween-80
[7] = dose: 12.5 mg/kg/injection, schedule: Q01DX009 (ip), vehicle: Klucel (hydroxypropylcellulose) (HPC)
[8] = dose: 25.0 mg/kg/injection, schedule: Q01DX009 (ip), vehicle: Klucel (hydroxypropylcellulose) (HPC)
[9] = dose: 60.0 mg/kg/injection, schedule: Q01DX005 (ip), vehicle: Klucel (hydroxypropylcellulose) (HPC)
[10] = dose: 120.0 mg/kg/injection, schedule: Q01DX005 (ip), vehicle: Klucel (hydroxypropylcellulose) (HPC)
[11] = dose: 240.0 mg/kg/injection, schedule: Q01DX005 (ip), vehicle: Klucel (hydroxypropylcellulose) (HPC)
[12] = dose: 240.0 mg/kg/injection, schedule: Q01DX005 (ip), vehicle: saline with Tween-80
[13] = dose: 100.0 mg/kg/injection, schedule: Q01DX009 (ip), vehicle: Klucel (hydroxypropylcellulose) (HPC)
[14] = dose: 200.0 mg/kg/injection, schedule: Q01DX009 (ip), vehicle: Klucel (hydroxypropylcellulose) (HPC)
[15] = dose: 50.0 mg/kg/injection, schedule: Q01DX009 (ip), vehicle: Klucel (hydroxypropylcellulose) (HPC)
[16] = dose: 100.0 mg/kg/injection, schedule: Q01DX009 (ip), vehicle: saline with Tween-80
[17] = dose: 200.0 mg/kg/injection, schedule: Q01DX009 (ip), vehicle: saline with Tween-80

Measured: T/C

C=C(Cl)/C=N/C(=O)NC(O)C(=C)Cl (stereo unspecified)
inactive: [1] 93 % of control | [2] 96 % of control | [3] 93 % of control

C/C=C(\CC)C(C#N)O[Si](C)(C)C (stereo unspecified)
inactive: [4] 93 % of control | [5] 98 % of control

N#CC1[C@@H](C(=O)c2ccccc2)N2C=Cc3ccccc3[C@@H]2[C@H]1C#N (stereo partly specified)
inactive: [4] 90 % of control

CC(=O)Nc1ccc([Se](N)=O)cc1 (stereo unspecified)
inactive: [1] 89 % of control | [2] 103 % of control | [3] 111 % of control

CN(C)CCCNC1C(C2COC(C)(C)O2)OC2OC(C)(C)OC21 (stereo unspecified)
inactive: dose: 100.0 mg/kg/injection, schedule: Q04DX002 (ip), vehicle: saline 97 % of control | dose: 200.0 mg/kg/injection, schedule: Q04DX002 (ip), vehicle: saline 95 % of control | dose: 400.0 mg/kg/injection, schedule: Q04DX002 (ip), vehicle: saline 93 % of control

O=C(/C=C/c1ccc(Cl)c(Cl)c1)c1ccc(Cl)cc1
inactive: dose: 12.5 mg/kg/injection, schedule: Q01DX009 (ip), vehicle: saline with Tween-80 100 % of control | dose: 25.0 mg/kg/injection, schedule: Q01DX009 (ip), vehicle: saline with Tween-80 100 % of control | [6] 100 % of control

C=CCC1(C(C)C(O)c2cc(OC)c(OC)c(OC)c2)CC(O)C=CC12OCCO2 (stereo unspecified)
inactive: dose: 1.25 mg/kg/injection, schedule: Q01DX005 (ip), vehicle: acid diluted with saline 94 % of control | dose: 2.5 mg/kg/injection, schedule: Q01DX005 (ip), vehicle: acid diluted with saline 103 % of control | dose: 5.0 mg/kg/injection, schedule: Q01DX005 (ip), vehicle: acid diluted with saline 100 % of control | dose: 10.0 mg/kg/injection, schedule: Q01DX005 (ip), vehicle: acid diluted with saline 100 % of control

C=CCNSc1ccccc1
inactive: [7] 112 % of control | [8] 109 % of control

O=C1CC2C(=O)N(Cc3ccccc3)C(=O)C2C(=O)N1 (stereo unspecified)
inactive: [1] 99 % of control | [2] 97 % of control | [3] 92 % of control

CCCCCC1(C2CCCCO2)NC(=O)NC1=O (stereo unspecified)
inactive: [1] 97 % of control | [2] 99 % of control | [3] 91 % of control

O/N=C/c1ccc(Cl)cc1Cl
inactive: dose: 25.0 mg/kg/injection, schedule: Q01DX005 (ip), vehicle: saline with Tween-80 98 % of control | [1] 107 % of control | [2] 92 % of control | [3] 96 % of control

CCc1nc2c(Br)c3oc(CC)nc3c(C)c2o1
inactive: [9] 97 % of control | [10] 95 % of control | [11] 91 % of control

CNC(=O)OCc1cocc1COC(=O)NC
inactive: dose: 12.5 mg/kg/injection, schedule: Q01DX009 (ip), vehicle: distilled water + Tween-80 106 % of control | dose: 25.0 mg/kg/injection, schedule: Q01DX009 (ip), vehicle: distilled water + Tween-80 101 % of control | dose: 50.0 mg/kg/injection, schedule: Q01DX009 (ip), vehicle: distilled water + Tween-80 109 % of control | dose: 100.0 mg/kg/injection, schedule: Q01DX009 (ip), vehicle: distilled water + Tween-80 117 % of control

O=C(Nc1cc(Cl)c(Cl)cc1Cl)N1CCOCC1
inactive: [4] 104 % of control | [5] 105 % of control | [12] 102 % of control

COc1ccccc1OCC(=O)c1ccccc1
inactive: dose: 10.0 mg/kg/injection, schedule: Q01DX005 (ip), vehicle: Klucel (hydroxypropylcellulose) (HPC) 102 % of control | dose: 20.0 mg/kg/injection, schedule: Q01DX005 (ip), vehicle: Klucel (hydroxypropylcellulose) (HPC) 96 % of control | dose: 40.0 mg/kg/injection, schedule: Q01DX005 (ip), vehicle: Klucel (hydroxypropylcellulose) (HPC) 100 % of control

COc1cc2c(cc1OC)[C@H]1[C@H](CO)c3ccc4c(c3CN1CC2)OCO4
inactive: dose: 12.5 mg/kg/injection, schedule: Q01DX005 (ip), vehicle: Klucel (hydroxypropylcellulose) (HPC) 100 % of control | dose: 25.0 mg/kg/injection, schedule: Q01DX005 (ip), vehicle: Klucel (hydroxypropylcellulose) (HPC) 96 % of control | dose: 50.0 mg/kg/injection, schedule: Q01DX005 (ip), vehicle: Klucel (hydroxypropylcellulose) (HPC) 94 % of control and 96 % of control

O=C1Nc2ccc(Cl)cc2C(c2ccccc2Cl)=NC1O (stereo unspecified)
inactive: [13] 102 % of control | [14] 96 % of control

COC(=O)c1nn(-c2ccccc2)c(C(=O)OC)c1C(=O)OC
inactive: dose: 100.0 mg/kg/injection, schedule: Q01DX001 (ip), vehicle: saline with Tween-80 111 % of control | dose: 200.0 mg/kg/injection, schedule: Q01DX001 (ip), vehicle: saline with Tween-80 112 % of control | dose: 400.0 mg/kg/injection, schedule: Q01DX001 (ip), vehicle: saline with Tween-80 98 % of control

O=C(NC1(C(=O)O)CC1c1ccccc1)c1ccccc1 (stereo unspecified)
inactive: [9] 100 % of control | [10] 94 % of control | [11] 100 % of control

O=C(NC(C(=O)NO)C(NO)c1ccccc1)c1ccccc1 (stereo unspecified)
inactive: [1] 103 % of control | [2] 102 % of control | [3] 102 % of control

Clc1c2ccccc2[se][n+]1Cc1ccccc1
inactive: [7] 104 % of control and 108 % of control and 111 % of control | [8] 105 % of control and 106 % of control and 112 % of control | [15] 105 % of control and 107 % of control and 121 % of control | [13] 106 % of control and 110 % of control

CC1(C)CC(O)C2OC2(C)C1 (stereo unspecified)
inactive: dose: 50.0 mg/kg/injection, schedule: Q01DX009 (ip), vehicle: saline 94 % of control | dose: 100.0 mg/kg/injection, schedule: Q01DX009 (ip), vehicle: saline 89 % of control | dose: 200.0 mg/kg/injection, schedule: Q01DX009 (ip), vehicle: saline 101 % of control

Cc1cc(=O)n2c(nc3cc([N+](=O)[O-])ccc32)s1
inactive: [15] 98 % of control | [13] 99 % of control | [14] 98 % of control

c1ccc2c(c1)CN1Cc3ccccc3C2C1
inactive: [6] 99 % of control | [16] 93 % of control | [17] 91 % of control

COc1cccc2c1C(=O)c1c(O)c3c(c(O)c1C2=O)CC(O)(C(C)=O)CC3OC1CCN(c2ccccc2)CC(C)O1 (stereo unspecified)
inactive: dose: 3.13 mg/kg/injection, schedule: Q04DX003 (ip), vehicle: distilled water + Tween-80 96 % of control | dose: 6.25 mg/kg/injection, schedule: Q04DX003 (ip), vehicle: distilled water + Tween-80 98 % of control | dose: 12.5 mg/kg/injection, schedule: Q04DX003 (ip), vehicle: distilled water + Tween-80 100 % of control | dose: 25.0 mg/kg/injection, schedule: Q04DX003 (ip), vehicle: distilled water + Tween-80 98 % of control | dose: 50.0 mg/kg/injection, schedule: Q04DX003 (ip), vehicle: distilled water + Tween-80 105 % of control

Cc1ncc([N+](=O)[O-])n1Cc1nncs1
inactive: [15] 108 % of control | [13] 107 % of control | [14] 104 % of control

O=C1c2ccccc2C(=O)N1CCn1[nH]c(=O)c2ccccc2c1=O
inactive: [4] 99 % of control | [5] 90 % of control | [12] 96 % of control

C[C@@H]1C[C@H]2CC[C@H](O2)[C@H](C)C(=O)O[C@@H](C)C[C@@H]2CC[C@@H](O2)[C@@H](C)C(=O)O[C@H](C)C[C@H]2CC[C@H](O2)[C@H](C)C(=O)O[C@@H](C)C[C@@H]2CC[C@@H](O2)[C@@H](C)C(=O)O1
inactive: dose: 132.0 mg/kg/injection, schedule: Q01DX009 (ip), vehicle: saline with Tween-80 100 % of control | [17] 104 % of control | dose: 300.0 mg/kg/injection, schedule: Q01DX009 (ip), vehicle: saline with Tween-80 104 % of control

COc1ccc2c(c1OC)C[N+]1(C)CCc3cc4c(cc3C1=C2)OCO4 (stereo unspecified)
inactive: dose: 0.63 mg/kg/injection, schedule: Q01DX009 (ip), vehicle: water 114 % of control | dose: 1.25 mg/kg/injection, schedule: Q01DX009 (ip), vehicle: water 108 % of control | dose: 2.5 mg/kg/injection, schedule: Q01DX009 (ip), vehicle: water 100 % of control | dose: 5.0 mg/kg/injection, schedule: Q01DX009 (ip), vehicle: water 101 % of control | dose: 10.0 mg/kg/injection, schedule: Q01DX009 (ip), vehicle: water 110 % of control

C=CCC(O)(C(F)(F)F)C(F)(F)F
inactive: [6] 105 % of control | [16] 103 % of control | [17] 115 % of control

Cn1c(=O)c2c(nc(/N=C/c3ccco3)n2C)n(C)c1=O
inactive: dose: 100.0 mg/kg/injection, schedule: Q04DX003 (ip), vehicle: saline 91 % of control | dose: 200.0 mg/kg/injection, schedule: Q04DX003 (ip), vehicle: saline 90 % of control | dose: 400.0 mg/kg/injection, schedule: Q04DX003 (ip), vehicle: saline 92 % of control
